# Starred links: 1 amine or outer side, 2 acyl side, 3 side chain; linkers in the order of their positions; H or OH if unused. Positions of bridges follow the written chain, without caps; N, C: chain ends. Non-standard residues stand in square brackets, D forms with d. Residues, ends and D or L forms follow the SMILES beside them. Ala(1H-tetrazol-5-yl) = N[C@@H](Cc1nnn[nH]1)C(=O)O; Trp(7-aza) = N[C@@H](Cc1c[nH]c2ncccc12)C(=O)O; hPhe(3-Cl) = N[C@@H](CCc1cccc(Cl)c1)C(=O)O; 2Nal = N[C@@H](Cc1ccc2ccccc2c1)C(=O)O; mXylylene = c1cc(C[*:1])cc(C[*:2])c1; Chg = N[C@H](C(=O)O)C1CCCCC1; Tle = CC(C)(C)[C@H](N)C(=O)O; Ac5c = NC1(C(=O)O)CCCC1; Nva = CCC[C@H](N)C(=O)O; Thp = NC1(C(=O)O)CCOCC1
# Molecular target: C5 (Homo sapiens, UniProt P01031)
# Sequence (P01031 678-1676 limits assumed): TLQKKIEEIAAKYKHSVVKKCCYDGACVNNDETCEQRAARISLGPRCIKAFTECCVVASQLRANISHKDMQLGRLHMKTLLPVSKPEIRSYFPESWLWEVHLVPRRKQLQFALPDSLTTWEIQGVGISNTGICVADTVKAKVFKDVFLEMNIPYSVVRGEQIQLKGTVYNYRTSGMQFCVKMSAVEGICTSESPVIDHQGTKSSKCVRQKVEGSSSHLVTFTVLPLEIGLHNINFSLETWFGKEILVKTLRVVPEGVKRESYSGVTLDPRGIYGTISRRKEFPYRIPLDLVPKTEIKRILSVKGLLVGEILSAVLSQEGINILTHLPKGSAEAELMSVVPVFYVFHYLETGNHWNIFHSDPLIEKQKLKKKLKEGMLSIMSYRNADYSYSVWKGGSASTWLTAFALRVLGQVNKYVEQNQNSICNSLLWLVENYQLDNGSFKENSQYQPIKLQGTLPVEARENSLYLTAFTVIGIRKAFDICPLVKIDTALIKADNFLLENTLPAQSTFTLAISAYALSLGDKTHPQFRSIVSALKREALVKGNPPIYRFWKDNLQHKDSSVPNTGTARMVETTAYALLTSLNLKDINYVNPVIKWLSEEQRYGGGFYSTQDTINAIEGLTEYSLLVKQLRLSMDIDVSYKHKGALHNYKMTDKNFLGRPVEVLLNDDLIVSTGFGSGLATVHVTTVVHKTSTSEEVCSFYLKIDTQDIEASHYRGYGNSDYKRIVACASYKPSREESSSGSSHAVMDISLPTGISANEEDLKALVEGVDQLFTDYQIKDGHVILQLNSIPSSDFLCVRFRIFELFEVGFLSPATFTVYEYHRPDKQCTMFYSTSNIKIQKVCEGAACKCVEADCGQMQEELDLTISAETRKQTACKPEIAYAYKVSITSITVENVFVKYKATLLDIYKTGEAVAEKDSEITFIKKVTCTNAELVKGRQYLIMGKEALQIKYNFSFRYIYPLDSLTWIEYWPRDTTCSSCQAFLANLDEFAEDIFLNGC
# Sequence (P01031 19-673 limits assumed): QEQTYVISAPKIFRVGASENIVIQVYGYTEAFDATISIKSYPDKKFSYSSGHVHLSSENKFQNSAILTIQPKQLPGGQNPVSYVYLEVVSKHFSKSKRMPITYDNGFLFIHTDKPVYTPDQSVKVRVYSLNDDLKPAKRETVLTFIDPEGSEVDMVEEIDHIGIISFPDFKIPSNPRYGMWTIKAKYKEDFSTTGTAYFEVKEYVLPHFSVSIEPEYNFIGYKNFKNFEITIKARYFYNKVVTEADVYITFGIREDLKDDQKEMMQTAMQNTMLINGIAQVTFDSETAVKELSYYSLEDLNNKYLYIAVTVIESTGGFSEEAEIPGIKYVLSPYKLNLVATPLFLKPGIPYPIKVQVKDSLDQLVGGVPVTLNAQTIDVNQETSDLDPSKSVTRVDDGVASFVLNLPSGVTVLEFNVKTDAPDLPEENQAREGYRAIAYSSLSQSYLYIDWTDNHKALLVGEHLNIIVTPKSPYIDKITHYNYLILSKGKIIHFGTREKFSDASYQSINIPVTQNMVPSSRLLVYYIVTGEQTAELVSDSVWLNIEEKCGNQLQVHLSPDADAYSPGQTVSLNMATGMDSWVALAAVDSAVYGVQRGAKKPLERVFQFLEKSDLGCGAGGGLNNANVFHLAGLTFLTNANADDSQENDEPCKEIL
# Test: Alternative human hemolysis assay using C5 depleted sera and purified human C5
# Format: cell-based
# Set-up: purchased Complement Technology, Tyler, Tex
# Conditions: 1.5% human C5 depleted sera, 0.5 nM purified human C5
row,Structure (SMILES),IC50 [nM]
1,"CCC[C@H](NC(=O)[C@@H](NC(=O)[C@@H]1CCCN1C(=O)[C@H](Cc1c[nH]c2ccccc12)NC(=O)[C@H](CCC(=O)O)NC(=O)[C@H](Cc1c[nH]c2ncccc12)NC(=O)[C@H](Cc1ccc(O)cc1)NC(=O)[C@@H](NC(=O)[C@H](CC(=O)O)NC(=O)[C@@H]1CSCc2cccc(c2)CSC[C@H](NC(C)=O)C(=O)N[C@@H](C(C)C)C(=O)N[C@@H](CCC(=O)O)C(=O)N[C@@H](CCCNC(=N)N)C(=O)N[C@@H](Cc2ccccc2)C(=O)N1)C(C)(C)C)C1CCCCC1)C(=O)O [Compound R3177, [mXylyl(1,6)]Ac-C-V-E-R-F-C-D-Tbg-Y-azaTrp-E-W-P-Chg-Nvl] (Ac-CVERFCD[Tle]Y[Trp(7-aza)]EWP[Chg][Nva]-OH; linker 1-6 via mXylylene)",12

# Same assay, conditions: […] human C5 depleted sera, 0.5 nM purified human C5
row,Structure (SMILES),IC50 [nM]
1,"CCCCCCCCCCCCCCCC(=O)NCCCC[C@H](NC(=O)[C@@H](NC(=O)[C@@H]1CCCN1C(=O)[C@H](Cc1ccc(O)cc1)NC(=O)[C@H](CCC(=O)O)NC(=O)[C@H](Cc1c[nH]c2ncccc12)NC(=O)[C@H](Cc1ccc(O)cc1)NC(=O)[C@@H](NC(=O)[C@H](CC(=O)O)NC(=O)[C@@H]1CSCc2cccc(c2)CSC[C@H](NC(C)=O)C(=O)N[C@@H](C)C(=O)N[C@@H](CCC(=O)O)C(=O)N[C@@H](CCCNC(=N)N)C(=O)N[C@@H](Cc2ccccc2)C(=O)N1)C(C)(C)C)c1ccccc1)C(=O)O [Compound R3189, [mXylyl(1,6)]Ac-C-A-E-R-F-C-D-Tbg-Y-azaTrp-E-Y-P-Phg-(Lys-C16)]",81.5
2,"CC(=O)N[C@H]1CCCCNC(=O)C[C@@H](C(=O)N(C)[C@@H](CC(=O)O)C(=O)N[C@H](C(=O)N[C@@H](Cc2ccc(O)cc2)C(=O)N[C@@H](Cc2c[nH]c3ccccc23)C(=O)N[C@@H](CCC(=O)O)C(=O)N[C@@H](Cc2ccc(O)cc2)C(=O)N2CCC[C@H]2C(=O)N[C@H](C(=O)N[C@@H](CCCCN)C(=O)O)C2CCCCC2)C(C)(C)C)NC(=O)[C@H](Cc2ccccc2)NC(=O)[C@H](CCCNC(=N)N)NC(=O)[C@H](CCC(=O)O)NC(=O)[C@H](C(C)C)NC1=O [Compound R3196, [cyclo(1,6)]Ac-K-V-E-R-F-D-(N—Me)D-Tbg-Y-W-E-Y-P-Chg-K]",3
3,"CCC[C@H](NC(=O)[C@@H](NC(=O)[C@@H]1CCCN1C(=O)[C@H](Cc1ccc(O)cc1)NC(=O)[C@H](CCC(=O)O)NC(=O)[C@H](Cc1cccc(CN)c1)NC(=O)[C@H](Cc1ccc(O)cc1)NC(=O)[C@@H](NC(=O)[C@H](CC(=O)O)NC(=O)[C@@H]1CSCc2cccc(c2)CSC[C@H](NC(C)=O)C(=O)N[C@@H](C(C)C)C(=O)N[C@@H](CCC(=O)O)C(=O)N[C@@H](CCCNC(=N)N)C(=O)N[C@@H](Cc2ccccc2)C(=O)N1)C(C)(C)C)C1CCCCC1)C(=O)O [Compound R3181, [mXylyl(1,6)]Ac-C-V-E-R-F-C-D-Tbg-Y-(3-aminomethyl)Phe-E-Y-P-Chg-Nvl]",1500
4,"CCCCCCCCCCCCCCCC(=O)NCCCC[C@H](NC(=O)[C@@H](NC(=O)[C@@H]1CCCN1C(=O)[C@H](Cc1ccc(O)cc1)NC(=O)[C@H](CCC(=O)O)NC(=O)[C@H](Cc1c[nH]c2ncccc12)NC(=O)[C@H](Cc1ccc(O)cc1)NC(=O)[C@@H](NC(=O)[C@H](CC(=O)O)N(C)C(=O)[C@@H]1CSSCCC(=O)N[C@H](C)C(=O)N[C@@H](CCC(=O)O)C(=O)N[C@@H](CCCNC(=N)N)C(=O)N[C@@H](Cc2ccccc2)C(=O)N1)C(C)(C)C)C1CCCCC1)C(=O)O [Compound R3199, [cyclo(1,6)](desamino)C-(D-Ala)-E-R-F-C-(N—Me)D-Tbg-Y-azaTrp-E-Y-P-Chg-(Lys-C16)]",112
5,"CCC[C@H](NC(=O)[C@@H](NC(=O)[C@@H]1CCCN1C(=O)[C@H](Cc1ccc2ccccc2c1)NC(=O)[C@H](CCC(=O)O)NC(=O)[C@H](Cc1c[nH]c2ncccc12)NC(=O)[C@H](Cc1ccc(O)cc1)NC(=O)[C@@H](NC(=O)[C@H](CC(=O)O)NC(=O)[C@@H]1CSCc2cccc(c2)CSC[C@H](NC(C)=O)C(=O)N[C@@H](C(C)C)C(=O)N[C@@H](CCC(=O)O)C(=O)N[C@@H](CCCNC(=N)N)C(=O)N[C@@H](Cc2ccccc2)C(=O)N1)C(C)(C)C)C1CCCCC1)C(=O)O [Compound R3180, [mXylyl(1,6)]Ac-C-V-E-R-F-C-D-Tbg-Y-azaTrp-E-2Nal-P-Chg-Nvl] (Ac-CVERFCD[Tle]Y[Trp(7-aza)]E[2Nal]P[Chg][Nva]-OH; linker 1-6 via mXylylene; C-terminus assumed)",29
6,"CC(=O)N[C@H]1CCCCNC(=O)C[C@@H](C(=O)N(C)[C@@H](CC(=O)O)C(=O)N[C@H](C(=O)N[C@@H](Cc2ccc(O)cc2)C(=O)N[C@@H](Cc2c[nH]c3ccccc23)C(=O)N[C@@H](CCC(=O)O)C(=O)N[C@@H](Cc2ccc(O)cc2)C(=O)N2CCC[C@H]2C(=O)N[C@H](C(=O)N[C@@H](CCCCNC(CC(C)C)=C2C(=O)CC(C)(C)CC2=O)C(=O)O)C2CCCCC2)C(C)(C)C)NC(=O)[C@H](Cc2ccccc2)NC(=O)[C@H](CCCNC(=N)N)NC(=O)[C@H](CCC(=O)O)NC(=O)[C@H](C(C)C)NC1=O [Compound R3197, [cyclo(1,6)]Ac-K-V-E-R-F-D-(N—Me)D-Tbg-Y-W-E-Y-P-Chg-K14]",4
7,"CCC[C@H](NC(=O)[C@@H](NC(=O)[C@@H]1CCCN1C(=O)[C@H](Cc1ccc(O)cc1)NC(=O)[C@H](CCC(=O)O)NC(=O)[C@H](Cc1c[nH]c2ncccc12)NC(=O)[C@H](Cc1ccc(O)cc1)NC(=O)[C@@H](NC(=O)C1(NC(=O)[C@@H]2CSCc3cccc(c3)CSC[C@H](NC(C)=O)C(=O)N[C@@H](C(C)C)C(=O)N[C@@H](CCC(=O)O)C(=O)N[C@@H](CCCNC(=N)N)C(=O)N[C@@H](Cc3ccccc3)C(=O)N2)CCOCC1)C(C)(C)C)C1CCCCC1)C(=O)O [Compound R3186, [mXylyl(1,6)]Ac-C-V-E-R-F-C-(Ac-Pyran)-Tbg-Y-azaTrp-E-Y-P-Chg-Nvl] (Ac-CVERFC[Thp][Tle]Y[Trp(7-aza)]EYP[Chg][Nva]-OH; linker 1-6 via mXylylene; C-terminus assumed)",18
8,"CCCCCCCCCCCCCCCC(=O)NCCCC[C@H](NC(=O)[C@@H](NC(=O)[C@@H]1CCCN1C(=O)[C@H](Cc1ccc(O)cc1)NC(=O)[C@H](CCC(=O)O)NC(=O)[C@H](Cc1c[nH]c2ccccc12)NC(=O)[C@H](Cc1ccc(O)cc1)NC(=O)[C@@H](NC(=O)[C@H](CC(=O)O)N(C)C(=O)[C@@H]1CC(=O)NCCCC[C@H](NC(C)=O)C(=O)N[C@@H](C(C)C)C(=O)N[C@@H](CCC(=O)O)C(=O)N[C@@H](CCCNC(=N)N)C(=O)N[C@@H](Cc2ccccc2)C(=O)N1)C(C)(C)C)C1CCCCC1)C(=O)O [Compound R3195, [cyclo(1,6)]Ac-K-V-E-R-F-D-(N—Me)D-Tbg-Y-W-E-Y-P-Chg-(Lys-C16)]",62.5
9,"CCC[C@H](NC(=O)[C@@H](NC(=O)[C@@H]1CCCN1C(=O)[C@H](Cc1ccc(O)cc1)NC(=O)[C@H](CCC(=O)O)NC(=O)[C@H](Cc1c[nH]c2ncccc12)NC(=O)[C@H](Cc1ccc(O)cc1)NC(=O)[C@@H](NC(=O)C1(NC(=O)[C@@H]2CSCc3cccc(c3)CSC[C@H](NC(C)=O)C(=O)N[C@@H](C(C)C)C(=O)N[C@@H](CCC(=O)O)C(=O)N[C@@H](CCCNC(=N)N)C(=O)N[C@@H](Cc3ccccc3)C(=O)N2)CCCC1)C(C)(C)C)C1CCCCC1)C(=O)O [Compound R3185, [mXylyl(1,6)]Ac-C-V-E-R-F-C-Cle-Tbg-Y-azaTrp-E-Y-P-Chg-Nvl] (Ac-CVERFC[Ac5c][Tle]Y[Trp(7-aza)]EYP[Chg][Nva]-OH; linker 1-6 via mXylylene; C-terminus assumed)",12.5
10,"CCC[C@H](NC(=O)[C@@H](NC(=O)[C@@H]1CCCN1C(=O)[C@H](CCc1cccc(Cl)c1)NC(=O)[C@H](CCC(=O)O)NC(=O)[C@H](Cc1c[nH]c2ncccc12)NC(=O)[C@H](Cc1ccc(O)cc1)NC(=O)[C@@H](NC(=O)[C@H](CC(=O)O)NC(=O)[C@@H]1CSCc2cccc(c2)CSC[C@H](NC(C)=O)C(=O)N[C@@H](C(C)C)C(=O)N[C@@H](CCC(=O)O)C(=O)N[C@@H](CCCNC(=N)N)C(=O)N[C@@H](Cc2ccccc2)C(=O)N1)C(C)(C)C)C1CCCCC1)C(=O)O [Compound R3179, [mXylyl(1,6)]Ac-C-V-E-R-F-C-D-Tbg-Y-azaTrp-E-(m-Cl-homo)Phe-P-Chg-Nvl] (Ac-CVERFCD[Tle]Y[Trp(7-aza)]E[hPhe(3-Cl)]P[Chg][Nva]-OH; linker 1-6 via mXylylene; C-terminus assumed)",83
11,"CCCCCCCCCCCCCCCC(=O)NCCCC[C@H](NC(=O)C(C)(C)NC(=O)[C@@H]1CCCN1C(=O)[C@H](Cc1ccc(O)cc1)NC(=O)[C@H](CCC(=O)O)NC(=O)[C@H](Cc1c[nH]c2ncccc12)NC(=O)[C@H](Cc1ccc(O)cc1)NC(=O)[C@@H](NC(=O)[C@H](CC(=O)O)N(C)C(=O)[C@@H]1CC(=O)NCCCC[C@H](NC(C)=O)C(=O)N[C@@H](C(C)C)C(=O)N[C@@H](CCC(=O)O)C(=O)N[C@@H](CCCNC(=N)N)C(=O)N[C@@H](Cc2ccccc2)C(=O)N1)C(C)(C)C)C(=O)O [Compound R3200, [cyclo(1,6)]Ac-K-V-E-R-F-D-(N—Me)D-Tbg-Y-azaTrp-E-Y-P-Aib-(Lys-C16)]",88.5
12,"CCC[C@H](NC(=O)[C@@H](NC(=O)[C@@H]1CCCN1C(=O)[C@H](Cc1ccc(O)cc1)NC(=O)[C@H](CCC(=O)O)NC(=O)[C@H](Cc1c[nH]c2ncccc12)NC(=O)[C@H](Cc1ccc(O)cc1)NC(=O)[C@@H](NC(=O)[C@H](Cc1nnn[nH]1)NC(=O)[C@@H]1CC(=O)NCCCC[C@H](NC(C)=O)C(=O)N[C@@H](C(C)C)C(=O)N[C@@H](CCC(=O)O)C(=O)N[C@@H](CCCNC(=N)N)C(=O)N[C@@H](Cc2ccccc2)C(=O)N1)C(C)(C)C)C1CCCCC1)C(=O)O [Compound R3174, [cyclo(1,6)]Ac-K-V-E-R-F-D-Asp(T)-Tbg-Y-azaTrp-E-Y-P-Chg-Nvl] (Ac-KVERFD[Ala(1H-tetrazol-5-yl)][Tle]Y[Trp(7-aza)]EYP[Chg][Nva]-OH; lactam 1-6; C-terminus assumed)",2.3

# Source: patent publication US11707503B2, “Modulators of complement activity” (Ra Pharmaceuticals, Inc., priority 2015, dated 2023)
